What follows are molecules tested against T1, mTOR (Homo sapiens, UniProt P42345) (assay: In Vitro mTOR Kinase Assay (Echo), Test (a)(ii)). Conditions: table of enzyme assay Test (a)(ii); read-out: Test (a)(ii) IC50.
T1 construct: FLAG; made in house
Format: biochemical
Outline: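 FLAG-tagged truncated mTOR (residues 1362-2549), expressed in HEK293 and purified via the FLAG tag, phosphorylated a biotinylated peptide over 2 hours at room temperature. EDTA stopped the reaction. Phospho-T389 was detected overnight by AlphaScreen using the p70 S6K T389 antibody with Protein A/streptavidin beads; IC50 reported.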

T1 sequence (P42345 1362-2549): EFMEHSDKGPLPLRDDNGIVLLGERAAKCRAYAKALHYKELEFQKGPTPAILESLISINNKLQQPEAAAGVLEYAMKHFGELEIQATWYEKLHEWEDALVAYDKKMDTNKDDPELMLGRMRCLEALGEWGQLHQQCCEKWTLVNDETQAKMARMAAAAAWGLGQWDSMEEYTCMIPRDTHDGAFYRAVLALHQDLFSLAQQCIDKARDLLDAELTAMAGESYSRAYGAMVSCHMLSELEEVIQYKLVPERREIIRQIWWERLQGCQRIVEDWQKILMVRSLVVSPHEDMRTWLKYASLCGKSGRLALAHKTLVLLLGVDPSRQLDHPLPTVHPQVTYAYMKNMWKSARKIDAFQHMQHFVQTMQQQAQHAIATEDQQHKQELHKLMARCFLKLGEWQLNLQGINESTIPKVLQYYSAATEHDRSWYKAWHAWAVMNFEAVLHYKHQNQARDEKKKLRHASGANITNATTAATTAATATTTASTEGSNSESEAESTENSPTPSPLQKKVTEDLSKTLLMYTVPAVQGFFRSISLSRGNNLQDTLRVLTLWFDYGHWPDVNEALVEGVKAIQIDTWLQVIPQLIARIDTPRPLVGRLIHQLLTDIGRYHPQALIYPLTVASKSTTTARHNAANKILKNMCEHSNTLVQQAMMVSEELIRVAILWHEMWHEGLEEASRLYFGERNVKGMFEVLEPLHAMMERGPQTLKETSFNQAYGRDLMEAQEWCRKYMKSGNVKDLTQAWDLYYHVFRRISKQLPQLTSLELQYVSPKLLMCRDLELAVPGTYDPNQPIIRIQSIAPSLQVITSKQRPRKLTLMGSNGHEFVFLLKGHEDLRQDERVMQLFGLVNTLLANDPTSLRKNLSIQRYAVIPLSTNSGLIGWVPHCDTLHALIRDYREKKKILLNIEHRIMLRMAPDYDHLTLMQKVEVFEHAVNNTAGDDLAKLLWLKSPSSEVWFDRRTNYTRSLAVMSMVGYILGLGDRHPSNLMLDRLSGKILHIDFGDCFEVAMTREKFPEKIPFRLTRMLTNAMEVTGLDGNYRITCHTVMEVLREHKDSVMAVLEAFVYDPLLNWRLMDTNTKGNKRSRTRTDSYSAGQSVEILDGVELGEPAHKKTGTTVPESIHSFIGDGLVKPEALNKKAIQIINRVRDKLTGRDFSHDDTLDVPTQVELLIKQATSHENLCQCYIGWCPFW

**Q.** C[C@H]1COCCN1c1cc(C2(S(=O)(=O)CCO)CC2)nc(-c2ccc(NC(=O)NCc3ncc[nH]3)cc2)n1 [Example 16h, 1-[4-[4-[1-(2-hydroxyethylsulfonyl)cyclopropyl]-6-[(3S)-3-methylmorpholin-4-yl]pyrimidin-2-yl]phenyl]-3-(1H-imidazol-2-ylmethyl)urea] was tested. Which IC50 did it give?
**A.** 186 nM

**Q.** Which IC50 does the source give for C[C@H]1COCCN1c1cc(C2(S(=O)(=O)CCO)CC2)nc(-c2ccc(NC(=O)NC3(CO)CC3)cc2)n1 [Example 16i, 1-[4-[4-[1-(2-hydroxyethylsulfonyl)cyclopropyl]-6-[(3S)-3-methylmorpholin-4-yl]pyrimidin-2-yl]phenyl]-3-[1-(hydroxymethyl)cyclopropyl]urea] here?
**A.** 845 nM

**Q.** With C[C@H]1COCCN1c1cc(C2(S(=O)(=O)c3cncc(F)c3)CC2)nc(-c2ccc(NC(=O)NCCO)cc2)n1 [Example 17, 1-[4-[4-[1-(5-Fluoropyridin-3-yl)sulfonylcyclopropyl]-6-[(3S)-3-methylmorpholin-4-yl]pyrimidin-2-yl]phenyl]-3-(2-hydroxyethyl)urea] as the molecule, how does the IC50 read?
**A.** 1.16 nM

**Q.** For CCNC(=O)Nc1ccc(-c2nc(N3CCOC[C@@H]3C)cc(C3(S(=O)(=O)c4cncc(F)c4)CC3)n2)cc1 [Example 17a, 3-ethyl-1-[4-[4-[1-(5-fluoropyridin-3-yl)sulfonylcyclopropyl]-6-[(3S)-3-methylmorpholin-4-yl]pyrimidin-2-yl]phenyl]urea], which IC50 is on record?
**A.** 0.942 nM

**Q.** Which IC50 does the source give for CNC(=O)Nc1ccc(-c2nc(N3CCOC[C@@H]3C)cc(C3(S(=O)(=O)c4cncc(F)c4)CC3)n2)cc1 [Example 17b, 1-[4-[4-[1-(5-fluoropyridin-3-yl)sulfonylcyclopropyl]-6-[(3S)-3-methylmorpholin-4-yl]pyrimidin-2-yl]phenyl]-3-methylurea] here?
**A.** 0.584 nM

**Q.** With C[C@H]1COCCN1c1cc(C2(S(=O)(=O)c3cncc(F)c3)CC2)nc(-c2ccc(NC(=O)NC3CC3)cc2)n1 [Example 17c, 3-cyclopropyl-1-[4-[4-[1-(5-fluoropyridin-3-yl)sulfonylcyclopropyl]-6-[(3S)-3-methylmorpholin-4-yl]pyrimidin-2-yl]phenyl]urea] as the molecule, how does the IC50 read?
**A.** 1.79 nM

**Q.** C[C@H]1COCCN1c1cc(C2(S(=O)(=O)C(C)(C)C)CC2)nc(-c2ccc(NC(=O)NC3CC3)cc2)n1 [Example 18, 1-[4-[4-(1-tert-Butylsulfonylcyclopropyl)-6-[(3S)-3-methylmorpholin-4-yl]pyrimidin-2-yl]phenyl]-3-cyclopropylurea] was tested. Which IC50 did it give?
**A.** 1.35 nM

**Q.** Which IC50 does the source give for C[C@H]1COCCN1c1cc(C2(S(=O)(=O)C(C)(C)C)CC2)nc(-c2ccc(NC(=O)Nc3ccccn3)cc2)n1 [Example 18b, 1-[4-[4-(1-tert-butylsulfonylcyclopropyl)-6-[(3S)-3-methylmorpholin-4-yl]pyrimidin-2-yl]phenyl]-3-pyridin-2-ylurea] here?
**A.** 14.7 nM

**Q.** How did the IC50 turn out when CC(C)CNC(=O)Nc1ccc(-c2nc(N3CCOC[C@@H]3C)cc(C3(S(=O)(=O)C(C)(C)C)CC3)n2)cc1 [Example 18c, 1-[4-[4-(1-tert-butylsulfonylcyclopropyl)-6-[(3S)-3-methylmorpholin-4-yl]pyrimidin-2-yl]phenyl]-3-(2-methylpropyl)urea] was run?
**A.** 32 nM

**Q.** How did the IC50 turn out when CC(C)NC(=O)Nc1ccc(-c2nc(N3CCOC[C@@H]3C)cc(C3(S(=O)(=O)C(C)(C)C)CC3)n2)cc1 [Example 18d, 1-[4-[4-(1-tert-butylsulfonylcyclopropyl)-6-[(3S)-3-methylmorpholin-4-yl]pyrimidin-2-yl]phenyl]-3-propan-2-ylurea] was run?
**A.** 15.1 nM

**Q.** Which IC50 does the source give for CCNC(=O)Nc1ccc(-c2nc(N3CCOC[C@@H]3C)cc(C3(S(=O)(=O)C(C)(C)C)CC3)n2)cc1 [Example 18e, 1-[4-[4-(1-tert-butylsulfonylcyclopropyl)-6-[(3S)-3-methylmorpholin-4-yl]pyrimidin-2-yl]phenyl]-3-ethylurea] here?
**A.** 0.654 nM

**Q.** For C[C@H]1COCCN1c1cc(C2(S(=O)(=O)C(C)(C)C)CC2)nc(-c2ccc(NC(=O)NCCN(C)C)cc2)n1 [Example 18f, 1-[4-[4-(1-tert-butylsulfonylcyclopropyl)-6-[(3S)-3-methylmorpholin-4-yl]pyrimidin-2-yl]phenyl]-3-(2-dimethylaminoethyl)urea], which IC50 is on record?
**A.** 120 nM

**Q.** Which IC50 does the source give for C[C@H]1COCCN1c1cc(C2(S(=O)(=O)C(C)(C)C)CC2)nc(-c2ccc(NC(=O)NCCO)cc2)n1 [Example 18g, 1-[4-[4-(1-tert-butylsulfonylcyclopropyl)-6-[(3S)-3-methylmorpholin-4-yl]pyrimidin-2-yl]phenyl]-3-(2-hydroxyethyl)urea] here?
**A.** 1.23 nM

**Q.** For CCCNC(=O)Nc1ccc(-c2nc(N3CCOC[C@@H]3C)cc(C3(S(=O)(=O)C(C)(C)C)CC3)n2)cc1 [Example 18h, 1-[4-[4-(1-tert-butylsulfonylcyclopropyl)-6-[(3S)-3-methylmorpholin-4-yl]pyrimidin-2-yl]phenyl]-3-propylurea], which IC50 is on record?
**A.** 6.64 nM

**Q.** How did the IC50 turn out when CNC(=O)Nc1ccc(-c2nc(N3CCOC[C@@H]3C)cc(C3(S(=O)(=O)C(C)(C)C)CC3)n2)cc1 [Example 18i, 1-[4-[4-(1-tert-butylsulfonylcyclopropyl)-6-[(3S)-3-methylmorpholin-4-yl]pyrimidin-2-yl]phenyl]-3-methylurea] was run?
**A.** 5.55 nM

**Q.** With C[C@H]1COCCN1c1cc(C2(S(=O)(=O)C(C)(C)C)CC2)nc(-c2ccc(NC(=O)Nc3ccc(C(F)(F)F)cc3)cc2)n1 [Example 18j, 1-[4-[4-(1-tert-butylsulfonylcyclopropyl)-6-[(3S)-3-methylmorpholin-4-yl]pyrimidin-2-yl]phenyl]-3-[4-(trifluoromethyl)phenyl]urea] as the molecule, how does the IC50 read?
**A.** 30.3 nM

**Q.** How did the IC50 turn out when C[C@H]1COCCN1c1cc(C2(S(=O)(=O)C(C)(C)C)CC2)nc(-c2ccc(NC(=O)NC(C)(C)CO)cc2)n1 [Example 18k, 1-[4-[4-(1-tert-butylsulfonylcyclopropyl)-6-[(3S)-3-methylmorpholin-4-yl]pyrimidin-2-yl]phenyl]-3-(1-hydroxy-2-methylpropan-2-yl)urea] was run?
**A.** 11.3 nM

**Q.** Which IC50 does the source give for C[C@H]1COCCN1c1cc(C2(S(=O)(=O)C(C)(C)C)CC2)nc(-c2ccc(NC(=O)NCCCO)cc2)n1 [Example 18l, 1-[4-[4-(1-tert-butylsulfonylcyclopropyl)-6-[(3S)-3-methylmorpholin-4-yl]pyrimidin-2-yl]phenyl]-3-(3-hydroxypropyl)urea] here?
**A.** 10.2 nM

**Q.** With C[C@H]1COCCN1c1cc(C2(S(=O)(=O)C(C)(C)C)CC2)nc(-c2ccc(NC(=O)Nc3cnn(C)c3)cc2)n1 [Example 18m, 1-[4-[4-(1-tert-butylsulfonylcyclopropyl)-6-[(3S)-3-methylmorpholin-4-yl]pyrimidin-2-yl]phenyl]-3-(1-methylpyrazol-4-yl)urea] as the molecule, how does the IC50 read?
**A.** 3.15 nM

**Q.** For C[C@H]1COCCN1c1cc(C2(S(=O)(=O)c3cc(F)cc(F)c3)CC2)nc(-c2ccc(NC(=O)NC3CC3)cc2)n1 [Example 19, 3-Cyclopropyl-1-[4-[4-[1-(3,5-difluorophenyl)sulfonylcyclopropyl]-6-[(3S)-3-methylmorpholin-4-yl]pyrimidin-2-yl]phenyl]urea], which IC50 is on record?
**A.** 1.31 nM

**Q.** Which IC50 does the source give for C[C@H]1COCCN1c1cc(C2(S(=O)(=O)c3cc(F)cc(F)c3)CC2)nc(-c2ccc(NC(=O)NC3CCC3)cc2)n1 [Example 19a, 3-cyclobutyl-1-[4-[4-[1-(3,5-difluorophenyl)sulfonylcyclopro-pyl]-6-[(3S)-3-methylmorpholin-4-yl]pyrimidin-2-yl]phenyl]urea] here?
**A.** 4.25 nM

— patent US20090018134A1, “Compounds - 945” (AstraZeneca AB, priority 2007, published 2009)
